Experimental data taken from US6369059B1, “Tetracyclic derivatives, process of preparation and use” (ICOS Corporation, priority 1994, dated 2002).

Key:
human recombinant PDE V = target: T1, human recombinant PDE V (Homo sapiens, UniProt O76074); assay: Inhibitory effect on cGMP-PDE (one-step assay adapted from Wells et al.); type: biochemical; details: 0.15 μM 8-[H3]-cGMP, 30 minutes incubation, 2% DMSO
T1 construct: purchased ICOS, Seattle USA
Experimental: The enzyme used was a human recombinant PDE V (ICOS, Seattle USA).
Compounds of the invention were dissolved in DMSO finally present at 2% in the assay.

[1] = tested on: Rat aortic smooth muscle cells (RSMC); assay: cGMP level measurements in ANF-stimulated cells; type: cell-based; details: 30 minutes at 37° C. with compound, then ANF (100 nM) for 10 minutes, c-GMP by scintillation proximity immunoassay
Experimental: Rat aortic smooth muscle cells (RSMC) prepared according to Chamley et al. in Cell Tissue Res. 177 503-522 (1977) were used between the 10th and 25th passage at confluence in 24-well culture dishes. Culture media was aspirated and replaced with PBS (0.5 ml) containing the compound tested at the appropriate concentration. After 30 minutes at 37° C., particulates guanylate cyclase was stimulated by addition of ANF (100 nM) for 10 minutes. At the end of incubation, the medium was withdrawn and two extractions were performed by addition of 65% ethanol (0.25 ml). The two ethanolic extracts were pooled and evaporated until dryness, using a Speed-vac system. c-GMP was measured after acetylation by scintillation proximity immunoassay ([…]).

[2] = tested on: conscious spontaneously hypertensive rats (SHR); assay: Antihypertensive activity in rats; type: in vivo, rat; details: orally 5 mg/kg in 5% DMF and 95% olive oil, carotid artery catheter, recorded for 5 hours
Experimental: The hypotensive effects of compounds according to the invention as identified in table 2 were studied in conscious spontaneously hypertensive rats (SHR). The compounds were administered orally at a dose of 5 mg/kg in a mixture of 5% DMF and 95% olive oil. Blood pressure was measured from a catheter inserted in the carotid artery and recorded for 5 hours after administration. The results are expressed as Area Under the Curve (AUC from 0 to 5 hours, mmHg.hour) of the fall blood pressure over time.

Compound	IC50 (human recombinant PDE V) [nM]	EC50 [1] [nM]	melting point [°C]	AUC PO (fall in blood pressure over time, AUC from 0 to 5 hours) [2] [mmHg.h]
O=C1[C@H]2Cc3c([nH]c4ccccc34)[C@H](c3ccc4c(c3)OCO4)N2C(=O)CN1Cc1ccncc1 (relative stereo) [Example 12, Cis-2,3,6,7,12,12a-Hexahydro-2-(4-pyridylmethyl)-6-(3,4-methylenedioxyphenyl)-pyrazino[2′,1′:6,1]pyrido[3,4-b]indole-1,4-dione]	10	150	273 to 274	–
CN1CC(=O)N2[C@@H](c3ccc4c(c3)CCO4)c3[nH]c4ccccc4c3C[C@@H]2C1=O (relative stereo) [Example 36, Cis-2,3,6,7,12,12a-Hexahydro-6-(2,3-dihydrobenzo[b]furan-5-yl)-2-methyl-pyrazino[2′,1′:6,1]pyrido[3,4-b]indole-1,4-dione]	< 10	500	292 to 294	99
CN1CC(=O)N2C(Cc3c([nH]c4ccccc34)C2c2ccc(Br)s2)C1=O (stereo not drawn) [Example 52, Cis-2,3,6,7,12,12a-Hexahydro-65-bromo-2-thienyl)-2-methyl-pyrazino[2′,1′:6,1]pyrido[3,4-b]indole-1,4-dione]	20	800	258	–
CCCCN1CC(=O)N2C(Cc3c([nH]c4ccccc34)C2c2ccc(C)cc2)C1=O (stereo not drawn) [Example 63, Cis-2 3,6,7,12,12a-Hexahydro-2-butyl-6-(4-methylphenyl)-pyrazino[2′,1′:6,1]pyrido[3,4-b]indole-1,4-dione]	30	350	194	95
O=C1[C@H]2Cc3c([nH]c4ccccc34)[C@@H](c3ccc4c(c3)OCO4)N2C(=O)CN1C1CCCC1 [Example 82, (6R,12aR)-2,3,6,7,12,12a-Hexahydro-2-cyclopentyl-6-(3,4-methylenedioxyphenyl)-pyrazino[2′,1′:6,1pyrido3,4-b]indole-1,4-dione]	20	500	237 to 239	111
COc1ccc([C@@H]2c3[nH]c4ccccc4c3C[C@@H]3C(=O)N(CC4CC4)CC(=O)N23)cc1 [Example 84, (6R,12aR)-2,3,6,7,12,12a-Hexahydro-2-cyclopropylmethyl-6-(4-methoxyphenyl)-pyrazino[2′,1′:6.1]pyrido[3,4-b]indole-1,4-dione]	10	400	204 to 205	77
COc1ccc([C@@H]2c3[nH]c4ccccc4c3C[C@@H]3C(=O)N(C)CC(=O)N23)cc1Cl [Example 89]	10	< 100	283 to 284	117
O=C1[C@H]2Cc3c([nH]c4ccccc34)[C@@H](c3ccc4c(c3)OCO4)N2C(=O)[C@@H]2CCCN12 [Example 115, (5aR, 12R,14aS)-1,2,3,5,6,11,12,14a-Octahydro-12-(3,4-methylenedioxyphenyl)-pyrrolo[1″,2″:4′,5′]pyrazino[2′,1′:6,1]pyrido[3,4-b]indole-5-1,4-dione]	< 10	400	302 to 304	–

Further lines, with some results ahead:

IC50 (human recombinant PDE V) [nM]	EC50 [1] [nM]	melting point [°C]	Compound	AUC PO (fall in blood pressure over time, AUC from 0 to 5 hours) [2] [mmHg.h]
< 10	150	290 to 293	CC(C)N1CC(=O)N2[C@H](c3ccc4c(c3)OCO4)c3[nH]c4ccccc4c3C[C@@H]2C1=O [Example 79, (6R,12aR)-2,3,6,7,12,12a-Hexahydro-2-isopropyl-6-(3,4-methylenedioxyphenyl)-pyrazino[2′,1′:6,1]pyrido[3,4-b]indole-1,4-dione]	171
–	200	–	CN1CC(=O)N2[C@H](c3ccc4c(c3)OCO4)c3[nH]c4ccccc4c3C[C@@H]2C1=O [Example 95, (6R,12aR)-2,3,6,7,12,12a-Hexahydro-2-methyl-6-(3,4-methylenedioxyphenyl)-pyrazino[2′,1′:6,1]pyrido[3,4-b]indole-1,4-dione]	135
10	300	285 to 290	O=C1NCC(=O)N2[C@H](c3ccc4c(c3)OCO4)c3[nH]c4ccccc4c3C[C@H]12 [Example 101, (6R,12aR)-2,3,6,7,12,12a-Hexahydro-4-(3,4-methylenedioxyphenyl)-pyrazino[2′,1′:6,1]pyrido [3,4-b]indole-1,4-dione]	136
–	–	219 to 220	C[C@@H]1C(=O)N2[C@H](c3ccc4c(c3)OCO4)c3[nH]c4ccccc4c3C[C@@H]2C(=O)N1C [Example 116, (3R,6R,12aR)-2,3,6,7,12,12a-Hexahydro-2,3-dimethyl-6-(3,4-methylenedioxyphenyl)-pyrazino[2′,1′:6,1]pyrido[3,4-b]indole-1,4-dione]	–
–	–	307 to 309	C[C@H]1C(=O)N2[C@H](c3ccc4c(c3)OCO4)c3[nH]c4ccccc4c3C[C@@H]2C(=O)N1C [Example 117, (3S,6R,12aR)-2,3,6,7,12,12a-Hexahydro-2,3-dimethyl-6-(3,4-methylenedioxyphenyl)-pyrazino[2′,1′:6,1]pyrido[3,4-b]indole-1,4-dione]	–
